# Tested on: recombinant NL4-3 virus (NLRluc, Renilla luciferase in nef, Gag P373S)
# Assay: HIV Cell Culture Assay (luciferase reporter virus in MT-2 cells)
# Format: cell-based
# Conditions: NL43, read-out: WT EC50
# Method: MT-2 cells and 293T cells were obtained from the NIH AIDS Research and Reference Reagent Program. MT-2 cells were propagated in RPMI 1640 media supplemented with 10% heat inactivated fetal bovine serum, […]. The 293T cells were propagated in DMEM media supplemented with 10% heat inactivated fetal bovine serum (FBS), 100 units/mL penicillin G and 100 μg/mL streptomycin. The proviral DNA clone of NL4-3 was obtained from the NIH AIDS Research and Reference Reagent Program. A recombinant NL4-3 virus, in which a section of the nef gene from NL4-3 was replaced with the Renilla luciferase gene, was used as a reference virus. In addition, residue Gag P373 was converted to P373S. Briefly, the recombinant virus was prepared by transfection of the altered proviral clone of NL4-3. Transfections were performed in 293T cells using LipofectAMINE PLUS from Invitrogen (Carlsbad, Calif.), according to manufacturer's instruction. The virus was titered in MT-2 cells using luciferase enzyme activity as a marker. Luciferase was quantitated using the Dual Luciferase kit from Promega (Madison, Wis.), with modifications to the manufacturer's protocol. The diluted Passive Lysis solution was pre-mixed with the re-suspended Luciferase Assay Reagent and the re-suspended Stop & Glo Substrate (2:1:1 ratio). Fifty (50) […] of the mixture was added to each aspirated well on assay plates and luciferase activity was measured immediately on a Wallac TriLux (Perkin-Elmer). Antiviral activities of inhibitors toward the recombinant virus were quantified by measuring luciferase activity in cells infected for 4-5 days with NLRluc recombinants in the presence serial dilutions of the inhibitor. Biological Data Key for EC50
row,SMILES,EC50
1,"C=C(C)[C@@H]1CC[C@]2(/C=C/C(=O)N(C)OC)CC[C@]3(C)[C@H](CC[C@@H]4[C@@]5(C)CC=C(c6ccc(C(=O)O)cc6)C(C)(C)[C@@H]5CC[C@]43C)[C@@H]12 [Example 5, 4-((1R,3aR,5aR,5bR,7aR,11aS,11bR,13aR,13bR)-3a-((E)-3-(methoxy(methyl)amino)-3-oxoprop-1-en-1-yl)-5a,5b,8,8,11a-pentamethyl-1-(prop-1-en-2-yl)-2,3,3a,4,5,5a,5b,6,7,7a,8,11,11a,11b,12,13,13a,13b-octadecahydro-1H-cyclopenta[a]chrysen-9-yl)benzoic acid]",< 100 nM
2,"C=C(C)[C@@H]1CC[C@]2(/C=C/C(=O)O)CC[C@]3(C)[C@H](CC[C@@H]4[C@@]5(C)CC=C(c6ccc(C(=O)O)cc6)C(C)(C)[C@@H]5CC[C@]43C)[C@@H]12 [Example 1, 4-((1R,3aR,5aR,5bR,7aR,11aS,11bR,13aR,13bR)-3a-((E)-2-carboxyvinyl)-5a,5b,8,8,8,11a-pentamethyl-1-(prop-1-en-2-yl)-2,3,3a,4,5,5a,5b,6,7,7a,8,11,11a,11b,12,13,13a,13b-octadecahydro-1H-cyclopenta[a]chrysen-9-yl)benzoic acid]",20 nM
3,"C=C(C)[C@@H]1CC[C@]2(/C=C/C(=O)NCCCN3CCS(=O)(=O)CC3)CC[C@]3(C)[C@H](CC[C@@H]4[C@@]5(C)CC=C(c6ccc(C(=O)O)cc6)C(C)(C)[C@@H]5CC[C@]43C)[C@@H]12 [Example 4, 4-((1R,3aR,5aR,5bR,7aR,11aS,11bR,13aR,13bR)-3a-((E)-3-((3-(1,1-dioxidothiomorpholino)propyl)amino)-3-oxoprop-1-en-1-yl)-5a,5b,8,8,11a-pentamethyl-1-(prop-1-en-2-yl)-2,3,3a,4,5,5a,5b,6,7,7a,8,11,11a,11b,12,13,13a,13b-octadecahydro-1H-cyclopenta[a]chrysen-9-yl)benzoic acid]",> 100 nM
4,"C=C(C)[C@@H]1CC[C@]2(/C=C/CN3CCS(=O)(=O)CC3)CC[C@]3(C)[C@H](CC[C@@H]4[C@@]5(C)CC=C(c6ccc(C(=O)O)cc6)C(C)(C)[C@@H]5CC[C@]43C)[C@@H]12 [Example 6, 4-((1R,3aR,5aR,5bR,7aR,11aS,11bR,13aR,13bR)-3a-((E)-3-(1,1-dioxidothiomorpholino)prop-1-en-1-yl)-5a,5b,8,8,11a-pentamethyl-1-(prop-1-en-2-yl)-2,3,3a,4,5,5a,5b,6,7,7a,8,11,11a,11b,12,13,13a,13b-octadecahydro-1H-cyclopenta[a]chrysen-9-yl)benzoic acid]",< 100 nM
5,"C=C(C)[C@@H]1CC[C@]2(CCNCCN3CCS(=O)(=O)CC3)CC[C@]3(C)[C@H](CC[C@@H]4[C@@]5(C)CC=C(c6ccc(C(=O)O)cc6)C(C)(C)[C@@H]5CC[C@]43C)[C@@H]12 [Example 11, 4-((1R,3aR,5aR,5bR,7aR,11aS,11bR,13aR,13bR)-3a-(2-((2-(1,1-dioxidothiomorpholino)ethyl)amino)ethyl)-5a,5b,8,8,11a-pentamethyl-1-(prop-1-en-2-yl)-2,3,3a,4,5,5a,5b,6,7,7a,8,11,11a,11b,12,13,13a,13b-octadecahydro-1H-cyclopenta[a]chrysen-9-yl)benzoic acid]",1.24 nM
6,"C=C(C)[C@@H]1CC[C@]2(CCN(C)CCN3CCS(=O)(=O)CC3)CC[C@]3(C)[C@H](CC[C@@H]4[C@@]5(C)CC=C(c6ccc(C(=O)O)cc6)C(C)(C)[C@@H]5CC[C@]43C)[C@@H]12 [Example 12, 4-((1R,3aR,5aR,5bR,7aR,11aS,11bR,13aR,13bR)-3a-(2-((2-(1,1-dioxidothiomorpholino)ethyl)(methyl)amino)ethyl)-5a,5b,8,8,11a-pentamethyl-1-(prop-1-en-2-yl)-2,3,3a,4,5,5a,5b,6,7,7a,8,11,11a,11b,12,13,13a,13b-octadecahydro-1H-cyclopenta[a]chrysen-9-yl)benzoic acid]",< 100 nM
7,"CC(C)[C@@H]1CC[C@]2([C@@H](O)CN(CCN(C)C)Cc3ccc(Cl)cc3)CC[C@]3(C)[C@H](CC[C@@H]4[C@@]5(C)CC=C(C6=CC[C@](CF)(C(=O)O)CC6)C(C)(C)[C@@H]5CC[C@]43C)[C@@H]12 (single isomer, unassigned) [Example 16]",130 nM
8,"C=C(C)[C@@H]1CC[C@]2(CCC(=O)N3CCS(=O)(=O)CC3)CC[C@]3(C)[C@H](CC[C@@H]4[C@@]5(C)CC=C(c6ccc(C(=O)O)cc6)C(C)(C)[C@@H]5CC[C@]43C)[C@@H]12 [Example 7, 4-((1R,3aR,5aR,5bR,7aR,11aS,11bR,13aR,13bR)-3a-(3-(1,1-dioxidothiomorpholino)-3-oxopropyl)-5a,5b,8,8,11a-pentamethyl-1-(prop-1-en-2-yl)-2,3,3a,4,5,5a,5b,6,7,7a,8,11,11a,11b,12,13,13a,13b-octadecahydro-1H-cyclopenta[a]chrysen-9-yl)benzoic acid]",5.66 nM
9,"C=C(C)[C@@H]1CC[C@]2(CCN3CCS(=O)(=O)CC3)CC[C@]3(C)[C@H](CC[C@@H]4[C@@]5(C)CC=C(c6ccc(C(=O)O)cc6)C(C)(C)[C@@H]5CC[C@]43C)[C@@H]12 [Example 10, 4-((1R,3aR,5aR,5bR,7aR,11aS,11bR,13aR,13bR)-3a-(2-(1,1-dioxidothiomorpholino)ethyl)-5a,5b,8,8,11a-pentamethyl-1-(prop-1-en-2-yl)-2,3,3a,4,5,5a,5b,6,7,7a,8,11,11a,11b,12,13,13a,13b-octadecahydro-1H-cyclopenta[a]chrysen-9-yl)benzoic acid]",< 100 nM
10,"C=C(C)[C@@H]1CC[C@]2(C(=O)C(=O)NCCN3CCS(=O)(=O)CC3)CC[C@]3(C)[C@H](CC[C@@H]4[C@@]5(C)CC=C(c6ccc(C(=O)O)cc6)C(C)(C)[C@@H]5CC[C@]43C)[C@@H]12 [Example 9, 4-((1R,3aS,5aR,5bR,7aR,11aS,11bR,13aR,13bR)-3a-(2-((2-(1,1-dioxidothiomorpholino)ethyl)amino)-2-oxoacetyl)-5a,5b,8,8,11a-pentamethyl-1-(prop-1-en-2-yl)-2,3,3a,4,5,5a,5b,6,7,7a,8,11,11a,11b, 12,13,13a,13b-octadecahydro-1H-cyclopenta[a]chrysen-9-yl)benzoic acid]",< 100 nM
11,"CC(C)[C@@H]1CC[C@]2([C@H](O)CN(CCN(C)C)Cc3ccc(Cl)cc3)CC[C@]3(C)[C@H](CC[C@@H]4[C@@]5(C)CC=C(C6=CC[C@](CF)(C(=O)O)CC6)C(C)(C)[C@@H]5CC[C@]43C)[C@@H]12 (single isomer, unassigned) [Example 15]",< 100 nM
12,"C=C(C)[C@@H]1CC[C@]2(C(=O)C(=O)NCCCN3CCS(=O)(=O)CC3)CC[C@]3(C)[C@H](CC[C@@H]4[C@@]5(C)CC=C(c6ccc(C(=O)O)cc6)C(C)(C)[C@@H]5CC[C@]43C)[C@@H]12 [Example 8, 4-((1R,3aS,5aR,5bR,7aR,11aS,11bR,13aR,13bR)-3a-(2-((3-(1,1-dioxidothiomorpholino)propyl)amino)-2-oxoacetyl)-5a,5b,8,8,11a-pentamethyl-1-(prop-1-en-2-yl)-2,3,3a,4,5,5a,5b,6,7,7a,8,11,11a,11b,12,13,13a,13b-octadecahydro-1H-cyclopenta[a]chrysen-9-yl)benzoic acid]",< 100 nM
13,"CC(C)[C@@H]1CC[C@]2(C(O)CNCCN(C)C)CC[C@]3(C)[C@H](CC[C@@H]4[C@@]5(C)CC=C(C6=CC[C@](CF)(C(=O)O)CC6)C(C)(C)[C@@H]5CC[C@]43C)[C@@H]12 (single isomer, unassigned) [Example 14]",< 100 nM
14,"C=C(C)[C@@H]1CC[C@]2(/C=C/C(=O)NCCN(C)C)CC[C@]3(C)[C@H](CC[C@@H]4[C@@]5(C)CC=C(c6ccc(C(=O)O)cc6)C(C)(C)[C@@H]5CC[C@]43C)[C@@H]12 [Example 2, 4-((1R,3aR,5aR,5bR,7aR,11aS,11bR,13aR,13bR)-3a-((E)-3-((2-(dimethylamino)ethyl)amino)-3-oxoprop-1-en-1-yl)-5a,5b,8,8,11a-pentamethyl-1-(prop-1-en-2-yl)-2,3,3a,4,5,5a,5b,6,7,7a,8,11,11a,11b,12,13,13a,13b-octadecahydro-1H-cyclopenta[a]chrysen-9-yl)benzoic acid]",> 100 nM
15,"C=C(C)[C@@H]1CC[C@]2(/C=C/C(=O)N3CCS(=O)(=O)CC3)CC[C@]3(C)[C@H](CC[C@@H]4[C@@]5(C)CC=C(c6ccc(C(=O)O)cc6)C(C)(C)[C@@H]5CC[C@]43C)[C@@H]12 [Example 3, 4-((1R,3aR,5aR,5bR,7aR,11aS,11bR,13aR,13bR)-3a-((E)-3-(1,1-dioxidothiomorpholino)-3-oxoprop-1-en-1-yl)-5a,5b,8,8,11a-pentamethyl-1-(prop-1-en-2-yl)-2,3,3a,4,5,5a,5b,6,7,7a,8,11,11a,11b,12,13,13a,13b-octadecahydro-1H-cyclopenta[a]chrysen-9-yl)benzoic acid]",< 100 nM

# — US9914747B2 (priority 2014, dated 2018)
